Where “and” joins values, the source holds several entries; their conditions need not be identical. Equal values may be shown once.
How the values were obtained:
PPIL1 = target: T1, PPIL1 (Homo sapiens, UniProt Q9Y3C6); assay: Chymotrypsin coupled prolyl-isomerase assay; type: biochemical
T1 construct: PPIL1 (UniProtKB Entry Q9Y3C6: residues 1–166); made in house; host or cells: E. coli BL21(DE3)
T1 sequence (Q9Y3C6 1-166): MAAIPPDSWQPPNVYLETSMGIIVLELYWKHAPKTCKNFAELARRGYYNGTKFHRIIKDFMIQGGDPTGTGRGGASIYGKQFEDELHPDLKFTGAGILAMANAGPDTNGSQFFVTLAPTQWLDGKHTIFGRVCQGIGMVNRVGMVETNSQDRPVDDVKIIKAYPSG

CypB = target: T2, CypB (Homo sapiens, UniProt P23284); assay: biochemical; details: for prolyl-isomerase activity (raw dose-response value): CypB
T2 construct: PPIB (UniProtKB Entry P23284: residues 34–216); His6 with TEV site (2BT vector leader) (N); made in house; host or cells: E. coli BL21(DE3)
Outline: (§1)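 Cyclophilin (5 nM final) in 25 mM HEPES pH 7.3, 100 mM NaCl, 0.01% Triton X-100 was preincubated with compound (0.25% DMSO) 5 min at 2–3 °C, then with 25 µM α-chymotrypsin 5 min. Suc-AAPF-AMC (5 µM, in LiCl/trifluoroethanol) started the reaction; AMC fluorescence read every 1 s for 330 s.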

CypG = target: T3, CypG (Homo sapiens, UniProt Q13427); assay: Chymotrypsin coupled prolyl-isomerase assay; type: biochemical; details: for prolyl-isomerase activity (raw dose-response value): CypG, in s^-1
T3 construct: PPIG (UniProtKB Entry Q13427: residues 1–179); His6 with thrombin site (pET28a LIC leader) (N); host or cells: E. coli BL21(DE3)
T3 sequence (Q13427 1-179): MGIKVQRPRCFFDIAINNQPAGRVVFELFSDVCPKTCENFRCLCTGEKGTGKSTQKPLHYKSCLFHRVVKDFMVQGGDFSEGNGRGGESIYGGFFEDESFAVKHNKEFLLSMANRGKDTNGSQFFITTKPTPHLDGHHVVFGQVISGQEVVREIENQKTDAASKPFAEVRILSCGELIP
Outline: as §1

CypA = target: T4, CypA (Homo sapiens, UniProt P62937); assay: Chymotrypsin coupled prolyl-isomerase assay; type: biochemical; details: for prolyl-isomerase activity (raw dose-response value): CypA, in s^-1
T4 construct: PPIA (UniProtKB Entry P62937: residues 1–165); made in house; host or cells: E. coli BL21(DE3)
Outline: as §1

CypH = target: T5, CypH (Homo sapiens, UniProt O43447); assay: Chymotrypsin coupled prolyl-isomerase assay; type: biochemical; details: for prolyl-isomerase activity (raw dose-response value): CypH
T5 construct: PPIH (UniProtKB Entry O43447: residues 1–177); His6 with TEV site (2BT vector leader) (N); made in house; host or cells: E. coli BL21(DE3)
Outline: as §1

CypE = target: T6, CypE (Homo sapiens, UniProt Q9UNP9); assay: Chymotrypsin coupled prolyl-isomerase assay; type: biochemical; details: for prolyl-isomerase activity (raw dose-response value): CypE, in s^-1
T6 construct: PPIE (UniProtKB Entry Q9UNP9: residues 131–301); host or cells: E. coli BL21(DE3)
Outline: as §1

CypC = target: T7, CypC (Homo sapiens, UniProt P45877); assay: Chymotrypsin coupled prolyl-isomerase assay; type: biochemical; details: for prolyl-isomerase activity (raw dose-response value): CypC, in s^-1
T7 construct: PPIC (UniProtKB Entry P45877: residues 24–212); host or cells: E. coli BL21(DE3)
Outline: as §1

NKTR = target: T8, NKTR (Homo sapiens, UniProt P30414); assay: Chymotrypsin coupled prolyl-isomerase assay; type: biochemical; details: for prolyl-isomerase activity (raw dose-response value): NKTR
T8 construct: NKTR (UniProtKB Entry P30414: residues 7–179); host or cells: E. coli BL21(DE3)
T8 sequence (P30414 7-179): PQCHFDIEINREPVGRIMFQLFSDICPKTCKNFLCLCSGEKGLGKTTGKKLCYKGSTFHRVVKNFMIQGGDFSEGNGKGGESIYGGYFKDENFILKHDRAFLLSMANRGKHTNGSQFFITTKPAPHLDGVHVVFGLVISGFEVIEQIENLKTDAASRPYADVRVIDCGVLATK

T7 sequence (P45877 24-212): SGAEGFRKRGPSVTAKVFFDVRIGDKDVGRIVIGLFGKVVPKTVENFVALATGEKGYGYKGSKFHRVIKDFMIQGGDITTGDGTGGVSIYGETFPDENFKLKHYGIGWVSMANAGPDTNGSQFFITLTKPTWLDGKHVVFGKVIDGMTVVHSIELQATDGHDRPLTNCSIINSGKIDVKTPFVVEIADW
T5 sequence (O43447 whole entry, the tested form may be a part): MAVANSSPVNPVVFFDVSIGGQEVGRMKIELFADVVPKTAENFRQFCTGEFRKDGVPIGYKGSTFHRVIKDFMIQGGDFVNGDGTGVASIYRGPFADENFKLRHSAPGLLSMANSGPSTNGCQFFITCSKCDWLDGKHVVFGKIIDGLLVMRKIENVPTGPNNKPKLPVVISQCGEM
T6 sequence (Q9UNP9 131-301): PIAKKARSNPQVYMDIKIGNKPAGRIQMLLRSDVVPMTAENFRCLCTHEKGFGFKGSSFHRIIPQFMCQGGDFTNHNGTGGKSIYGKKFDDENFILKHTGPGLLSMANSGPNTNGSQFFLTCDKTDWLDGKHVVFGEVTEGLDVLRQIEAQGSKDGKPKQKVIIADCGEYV
T4 sequence (P62937 whole entry, the tested form may be a part): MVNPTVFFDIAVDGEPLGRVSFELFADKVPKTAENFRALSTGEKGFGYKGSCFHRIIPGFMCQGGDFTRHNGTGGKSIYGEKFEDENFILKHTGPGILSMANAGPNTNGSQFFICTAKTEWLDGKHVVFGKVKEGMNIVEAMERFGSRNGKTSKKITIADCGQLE
T2 sequence (P23284 34-216): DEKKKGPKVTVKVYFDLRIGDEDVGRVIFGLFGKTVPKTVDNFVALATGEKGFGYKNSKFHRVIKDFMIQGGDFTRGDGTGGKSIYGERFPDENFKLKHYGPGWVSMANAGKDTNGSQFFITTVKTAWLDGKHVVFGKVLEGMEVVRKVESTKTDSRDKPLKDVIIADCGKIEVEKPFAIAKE

With `NCCOCCNC(=O)[C@@H]1CCNC(=O)/C=C/C(=O)N2CCC[C@](Cc3ccccc3)(C2)C(=O)N[C@@H](Cc2ccc(C(=O)c3ccccc3)cc2)C(=O)NCc2ccccc2CC(=O)N1` [Compound B1] the “prolyl-isomerase activity (raw dose-response value)” value (“prolyl-isomerase activity” for short) (PPIL1; PPIL1, dose 0.0228624 µM) was 0.0901 and 0.08843 and 0.1022, the “prolyl-isomerase activity” value (PPIL1; PPIL1, dose 0.0685871 µM) was 0.07658 and 0.07564 and 0.08071 and the “prolyl-isomerase activity” value (PPIL1; PPIL1, dose 0.205761 µM) was 0.05553 and 0.06081 and 0.06346. The “prolyl-isomerase activity” value (PPIL1; PPIL1, dose 0.617284 µM) was 0.04442 and 0.03692 and 0.0407, the “prolyl-isomerase activity” value (PPIL1; PPIL1, dose 1.85185 µM) was 0.02604 and 0.02534 and 0.024 and the “prolyl-isomerase activity” value (PPIL1; PPIL1, dose 5.55556 µM) was 0.01797 and 0.0175 and 0.01949. For the same molecule, the “prolyl-isomerase activity” value (PPIL1; PPIL1, dose 16.6667 µM) was 0.01539 and 0.0139 and 0.01238, the “prolyl-isomerase activity” value (PPIL1; PPIL1, dose 50 µM) was 0.01281 and 0.01627 and 0.01081 and the IC50 (PPIL1; wild-type PPIL1, read-out: Wild-Type Cyclophilin Prolyl Isomerase Inhibition IC50 Values, PPIL1) was 200 nM. For the same molecule, the “prolyl-isomerase activity” value (CypB; dose 0.00114312 µM) was 0.08676 and 0.07612 and 0.1045, the “prolyl-isomerase activity” value (CypB; dose 0.00342935 µM) was 0.09293 and 0.08942 and 0.1133 and the “prolyl-isomerase activity” value (CypB; dose 0.0102881 µM) was 0.05857 and 0.07024 and 0.08235. For the same molecule, the “prolyl-isomerase activity” value (CypB; dose 0.0308642 µM) was 0.06507 and 0.05219 and 0.06265, the “prolyl-isomerase activity” value (CypB; dose 0.0925926 µM) was 0.05131 and 0.04637 and 0.04858 and the “prolyl-isomerase activity” value (CypB; dose 0.277778 µM) was 0.03303 and 0.03453 and 0.03517. For the same molecule, the “prolyl-isomerase activity” value (CypB; dose 0.833333 µM) was 0.03176 and 0.0219 and 0.02127, the “prolyl-isomerase activity” value (CypB; dose 2.5 µM) was 0.01492 and 0.01697 and 0.01392 and the IC50 (CypB; wild-type CypB, read-out: Wild-Type Cyclophilin Prolyl Isomerase Inhibition IC50 Values, CypB) was 30 nM. For the same molecule, the “prolyl-isomerase activity” value (CypG; dose 6.125 µM) was 0.0775 and 0.0774 and 0.07959, the “prolyl-isomerase activity” value (CypG; dose 12.5 µM) was 0.07476 and 0.07359 and 0.07437 and the “prolyl-isomerase activity” value (CypG; dose 25 µM) was 0.06566 and 0.06625 and 0.06165. For the same molecule, the “prolyl-isomerase activity” value (CypG; dose 50 µM) was 0.05369 and 0.05651 and 0.05019, the “prolyl-isomerase activity” value (CypG; dose 100 µM) was 0.03357 and 0.03853 and 0.03559 and the IC50 (CypG; wild-type CypG, read-out: Wild-Type Cyclophilin Prolyl Isomerase Inhibition IC50 Values, CypG) was 70000 nM. The “prolyl-isomerase activity” value (CypA; dose 0.00114312 µM) was 0.07489 and 0.0818 and 0.1208, the “prolyl-isomerase activity” value (CypA; dose 0.00342935 µM) was 0.107 and 0.09816 and 0.1302 and the “prolyl-isomerase activity” value (CypA; dose 0.0102881 µM) was 0.09417 and 0.08156 and 0.09814. For the same molecule, the “prolyl-isomerase activity” value (CypA; dose 0.0308642 µM) was 0.0846 and 0.08188 and 0.08679, the “prolyl-isomerase activity” value (CypA; dose 0.0925926 µM) was 0.06244 and 0.05553 and 0.05478 and the “prolyl-isomerase activity” value (CypA; dose 0.277778 µM) was 0.04513 and 0.03865 and 0.03913. For the same molecule, the “prolyl-isomerase activity” value (CypA; dose 0.833333 µM) was 0.02761 and 0.02378 and 0.02924, the “prolyl-isomerase activity” value (CypA; dose 2.5 µM) was 0.01703 and 0.01931 and 0.02247 and the IC50 (CypA; wild-type CypA, read-out: Wild-Type Cyclophilin Prolyl Isomerase Inhibition IC50 Values, CypA) was 70 nM. For the same molecule, the “prolyl-isomerase activity” value (CypH; dose 0.0228624 µM) was 0.05823 and 0.06198 and 0.07295, the “prolyl-isomerase activity” value (CypH; dose 0.0685871 µM) was 0.0659 and 0.06156 and 0.06865 and the “prolyl-isomerase activity” value (CypH; dose 0.205761 µM) was 0.06027 and 0.0617 and 0.06475. For the same molecule, the “prolyl-isomerase activity” value (CypH; dose 0.617284 µM) was 0.05924 and 0.06278 and 0.06988, the “prolyl-isomerase activity” value (CypH; dose 1.85185 µM) was 0.05446 and 0.06201 and 0.06094 and the “prolyl-isomerase activity” value (CypH; dose 5.55556 µM) was 0.05231 and 0.05643 and 0.05555. The “prolyl-isomerase activity” value (CypH; dose 16.6667 µM) was 0.04539 and 0.04092 and 0.04707, the “prolyl-isomerase activity” value (CypH; dose 50 µM) was 0.02854 and 0.02769 and 0.02761 and the IC50 (CypH; wild-type CypH, read-out: Wild-Type Cyclophilin Prolyl Isomerase Inhibition IC50 Values, CypH) was 20000 nM. The “prolyl-isomerase activity” value (CypE; dose 0.00244141 µM) was 0.1145 and 0.1032 and 0.1074, the “prolyl-isomerase activity” value (CypE; dose 0.00488281 µM) was 0.1194 and 0.1024 and 0.1063 and the “prolyl-isomerase activity” value (CypE; dose 0.00976562 µM) was 0.1019 and 0.09727 and 0.09617. For the same molecule, the “prolyl-isomerase activity” value (CypE; dose 0.0195312 µM) was 0.09053 and 0.08335 and 0.08401, the “prolyl-isomerase activity” value (CypE; dose 0.0390625 µM) was 0.08777 and 0.07578 and 0.07602 and the “prolyl-isomerase activity” value (CypE; dose 0.078125 µM) was 0.06552 and 0.06127 and 0.05879. For the same molecule, the “prolyl-isomerase activity” value (CypE; dose 0.15625 µM) was 0.05184 and 0.04744 and 0.04506, the “prolyl-isomerase activity” value (CypE; dose 0.3125 µM) was 0.04144 and 0.0397 and 0.03654 and the “prolyl-isomerase activity” value (CypE; dose 0.625 µM) was 0.03167 and 0.02791 and 0.02701. The “prolyl-isomerase activity” value (CypE; dose 1.25 µM) was 0.02174 and 0.02048 and 0.01944, the “prolyl-isomerase activity” value (CypE; dose 2.5 µM) was 0.0149 and 0.01299 and 0.01222 and the IC50 (CypE; wild-type CypE, read-out: Wild-Type Cyclophilin Prolyl Isomerase Inhibition IC50 Values, CypE) was 99 nM. For the same molecule, the “prolyl-isomerase activity” value (CypC; dose 0.00244141 µM) was 0.04561 and 0.0417 and 0.04308, the “prolyl-isomerase activity” value (CypC; dose 0.00488281 µM) was 0.04435 and 0.04111 and 0.04239 and the “prolyl-isomerase activity” value (CypC; dose 0.00976562 µM) was 0.04356 and 0.0401 and 0.04072. For the same molecule, the “prolyl-isomerase activity” value (CypC; dose 0.0195312 µM) was 0.03963 and 0.03695 and 0.03646, the “prolyl-isomerase activity” value (CypC; dose 0.0390625 µM) was 0.035 and 0.03188 and 0.03161 and the “prolyl-isomerase activity” value (CypC; dose 0.078125 µM) was 0.02847 and 0.0253 and 0.02646. The “prolyl-isomerase activity” value (CypC; dose 0.15625 µM) was 0.02267 and 0.02159 and 0.02162, the “prolyl-isomerase activity” value (CypC; dose 0.3125 µM) was 0.01917 and 0.0189 and 0.01739 and the “prolyl-isomerase activity” value (CypC; dose 0.625 µM) was 0.01677 and 0.01627 and 0.01518. The “prolyl-isomerase activity” value (CypC; dose 1.25 µM) was 0.01345 and 0.01256 and 0.01367, the “prolyl-isomerase activity” value (CypC; dose 2.5 µM) was 0.009144 and 0.00999 and 0.01009 and the IC50 (CypC; wild-type CypC, read-out: Wild-Type Cyclophilin Prolyl Isomerase Inhibition IC50 Values, CypC) was 79 nM. For the same molecule, the “prolyl-isomerase activity” value (NKTR; dose 6.125 µM) was 0.03455 and 0.03286 and 0.03325, the “prolyl-isomerase activity” value (NKTR; dose 12.5 µM) was 0.03629 and 0.03152 and 0.03174 and the “prolyl-isomerase activity” value (NKTR; dose 25 µM) was 0.03462 and 0.03246 and 0.03111. The “prolyl-isomerase activity” value (NKTR; dose 50 µM) was 0.03275 and 0.03195 and 0.02857, the “prolyl-isomerase activity” value (NKTR; dose 100 µM) was 0.02401 and 0.02915 and 0.0269 and the IC50 (NKTR; wild-type NKTR, read-out: Wild-Type Cyclophilin Prolyl Isomerase Inhibition IC50 Values, NKTR) was greater than 100000 nM.
